Active and inactive are the calls of the source.
Assays:
[1] = molecular target: T1, Calpain-2 catalytic subunit (Sus scrofa, UniProt P43367); assay: m-calpain protease blockers, concentration series – biochemical, fluorogenic peptide substrate, dose response (AID 1420); format: functional
T1 sequence (P43367 whole entry): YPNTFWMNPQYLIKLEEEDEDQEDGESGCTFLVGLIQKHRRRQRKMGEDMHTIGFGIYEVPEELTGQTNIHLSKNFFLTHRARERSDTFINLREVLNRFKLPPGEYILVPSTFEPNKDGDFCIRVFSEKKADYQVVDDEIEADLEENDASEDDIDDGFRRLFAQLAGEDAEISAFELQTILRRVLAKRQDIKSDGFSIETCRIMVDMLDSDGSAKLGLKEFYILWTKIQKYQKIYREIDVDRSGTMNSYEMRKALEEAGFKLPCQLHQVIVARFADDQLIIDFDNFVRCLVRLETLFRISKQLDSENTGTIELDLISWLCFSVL

[2] = viability loss of HPDE-C7K cells – cell-based, fluorescence, HTS, primary screen (AID 431); format: functional; conditions: Homo sapiens
[3] = viability of PTEN-deleted HCT116 cells – cell-based, HCT116 PTEN knockout, dose response (AID 1047); format: functional;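 also: HCT116 colon tumor cells with PTEN knocked out; cells exposed to compound for 60 hours before readout; potency for loss of cell viability measured by luminescence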
[4] = HPDE-C7 pancreatic duct cell viability loss – fluorescence, HTS (AID 430); format: functional, cell-based; conditions: Homo sapiens
[5] = molecular target: T2, Tyrosine-protein phosphatase non-receptor type 7 (Homo sapiens, UniProt P35236); assay: HePTP tyrosine phosphatase activity blockers – biochemical, absorbance, leukemia target, primary screen (AID 521); format: functional
T2 sequence (P35236 whole entry): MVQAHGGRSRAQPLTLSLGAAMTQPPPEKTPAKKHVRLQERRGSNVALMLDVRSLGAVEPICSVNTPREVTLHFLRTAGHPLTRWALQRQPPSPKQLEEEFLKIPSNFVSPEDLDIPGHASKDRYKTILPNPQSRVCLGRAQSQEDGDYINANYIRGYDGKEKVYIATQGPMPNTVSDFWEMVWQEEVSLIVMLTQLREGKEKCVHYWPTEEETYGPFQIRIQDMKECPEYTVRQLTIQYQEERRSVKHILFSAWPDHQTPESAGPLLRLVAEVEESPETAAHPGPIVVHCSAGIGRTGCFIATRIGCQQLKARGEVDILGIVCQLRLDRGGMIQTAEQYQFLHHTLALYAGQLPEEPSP

[6] = viability of HCT116 lacking mutant beta-catenin – cell-based, human colon tumor, dose response (AID 1045); format: functional;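 also: HCT116 colon tumor cells with beta catenin knocked out; cells exposed to compound for 60 hours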
Leucine aminopeptidase = molecular target: T3, Leucine aminopeptidase (Plasmodium falciparum 3D7, UniProt Q8IL11); assay: P. falciparum M17LAP inhibitors, primary screen, biochemical, fluorogenic H-Leu-NHMec substrate, 1536-well (AID 1619); format: functional
T3 sequence (Q8IL11 whole entry): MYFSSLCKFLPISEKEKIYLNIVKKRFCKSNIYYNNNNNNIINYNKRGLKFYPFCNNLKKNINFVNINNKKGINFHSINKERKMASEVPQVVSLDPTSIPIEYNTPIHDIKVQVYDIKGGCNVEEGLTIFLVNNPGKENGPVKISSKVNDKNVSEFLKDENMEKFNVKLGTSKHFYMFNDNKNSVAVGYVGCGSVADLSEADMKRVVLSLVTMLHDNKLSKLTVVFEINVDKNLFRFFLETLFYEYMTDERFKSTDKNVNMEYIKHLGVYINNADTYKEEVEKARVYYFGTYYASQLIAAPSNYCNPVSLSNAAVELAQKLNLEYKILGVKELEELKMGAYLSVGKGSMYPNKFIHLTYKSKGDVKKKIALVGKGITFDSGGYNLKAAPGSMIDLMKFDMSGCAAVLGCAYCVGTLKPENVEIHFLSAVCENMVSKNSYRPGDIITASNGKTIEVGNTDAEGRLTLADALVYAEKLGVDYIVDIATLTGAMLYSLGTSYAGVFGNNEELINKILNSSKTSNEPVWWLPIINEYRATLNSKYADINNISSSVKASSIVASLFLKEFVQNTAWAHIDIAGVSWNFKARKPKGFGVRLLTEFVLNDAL

[7] = molecular target: T4, Replicative DNA helicase DnaB (Mycobacterium tuberculosis, UniProt P9WMR3); assay: DnaB intein splicing inhibitors, dose response, biochemical, cell-free fluorescence (AID 449749); format: functional
T4 sequence (P9WMR3 whole entry): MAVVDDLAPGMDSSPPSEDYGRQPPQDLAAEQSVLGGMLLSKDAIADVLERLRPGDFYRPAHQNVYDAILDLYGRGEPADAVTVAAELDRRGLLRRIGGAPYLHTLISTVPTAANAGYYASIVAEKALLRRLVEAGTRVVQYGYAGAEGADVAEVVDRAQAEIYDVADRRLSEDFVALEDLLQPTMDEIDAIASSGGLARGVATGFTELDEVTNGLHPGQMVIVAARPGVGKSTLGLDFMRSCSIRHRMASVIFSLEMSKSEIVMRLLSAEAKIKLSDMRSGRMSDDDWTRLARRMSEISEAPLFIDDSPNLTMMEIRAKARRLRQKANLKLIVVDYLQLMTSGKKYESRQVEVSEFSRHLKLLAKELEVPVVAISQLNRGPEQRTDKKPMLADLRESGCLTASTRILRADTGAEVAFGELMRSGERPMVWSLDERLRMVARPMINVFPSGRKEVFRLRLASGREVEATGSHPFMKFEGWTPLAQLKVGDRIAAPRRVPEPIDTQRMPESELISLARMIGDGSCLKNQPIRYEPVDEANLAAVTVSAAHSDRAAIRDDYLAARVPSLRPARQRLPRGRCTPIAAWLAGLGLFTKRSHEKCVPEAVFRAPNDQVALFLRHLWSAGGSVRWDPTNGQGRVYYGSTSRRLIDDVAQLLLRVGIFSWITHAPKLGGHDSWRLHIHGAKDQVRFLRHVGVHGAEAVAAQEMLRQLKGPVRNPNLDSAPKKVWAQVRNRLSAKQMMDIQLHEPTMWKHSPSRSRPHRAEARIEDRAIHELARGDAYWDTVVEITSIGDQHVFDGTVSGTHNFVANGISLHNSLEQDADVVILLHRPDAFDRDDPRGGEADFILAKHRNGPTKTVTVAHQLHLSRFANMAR

Protein RecA = molecular target: T5, Protein RecA (Mycobacterium tuberculosis, UniProt P9WHJ3); assay: Fluorescence Cell-Free Homogeneous Dose Retest to Identify Inhibitors of RecA-Intein Splicing Activity. [Related pubchem assays (depositor defined):AID2097, AID2223, AID489010, AID492950]; format: functional
T5 sequence (P9WHJ3 whole entry): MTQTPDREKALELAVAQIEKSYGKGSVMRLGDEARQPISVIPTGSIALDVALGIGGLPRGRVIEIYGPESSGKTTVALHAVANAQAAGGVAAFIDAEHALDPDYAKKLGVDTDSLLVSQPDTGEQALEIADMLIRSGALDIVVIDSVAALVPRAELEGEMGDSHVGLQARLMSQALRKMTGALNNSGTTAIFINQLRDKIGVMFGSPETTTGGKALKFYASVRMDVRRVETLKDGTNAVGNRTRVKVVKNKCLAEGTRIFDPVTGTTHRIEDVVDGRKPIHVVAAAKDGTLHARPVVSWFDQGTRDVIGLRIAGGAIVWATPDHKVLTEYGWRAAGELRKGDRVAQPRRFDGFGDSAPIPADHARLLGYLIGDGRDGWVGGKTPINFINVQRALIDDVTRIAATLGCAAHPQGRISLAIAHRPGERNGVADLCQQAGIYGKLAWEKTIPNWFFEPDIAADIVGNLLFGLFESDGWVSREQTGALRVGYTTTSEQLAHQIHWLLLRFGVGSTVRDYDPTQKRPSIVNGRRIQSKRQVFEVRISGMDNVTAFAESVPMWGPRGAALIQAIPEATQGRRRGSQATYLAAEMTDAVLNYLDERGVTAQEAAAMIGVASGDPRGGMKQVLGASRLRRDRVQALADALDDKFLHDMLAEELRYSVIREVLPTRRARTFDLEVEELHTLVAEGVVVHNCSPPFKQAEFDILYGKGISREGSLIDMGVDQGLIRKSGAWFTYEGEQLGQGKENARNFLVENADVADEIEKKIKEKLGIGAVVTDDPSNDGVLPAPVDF

Caspase-6 = molecular target: T6, Caspase-6 (Homo sapiens, UniProt P55212); assay: inhibition of CASP6 peptide cleavage – biochemical, VEID-R110 fluorescence, cherry-pick, dose response (AID 720632)
T6 sequence (P55212 whole entry): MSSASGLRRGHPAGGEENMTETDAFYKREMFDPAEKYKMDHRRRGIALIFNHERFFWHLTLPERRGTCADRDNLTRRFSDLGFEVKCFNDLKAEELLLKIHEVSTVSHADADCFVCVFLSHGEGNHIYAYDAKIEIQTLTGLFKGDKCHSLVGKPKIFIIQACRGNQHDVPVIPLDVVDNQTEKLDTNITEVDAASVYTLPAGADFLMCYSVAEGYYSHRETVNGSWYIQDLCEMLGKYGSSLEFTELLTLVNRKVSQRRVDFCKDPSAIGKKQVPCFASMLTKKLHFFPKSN

[8] = growth inhibition of yeast DHODH-expressing 3D7 parasites – SYBR Green, dry powder samples, dose response (AID 1159570); format: functional, cell-based;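 also: parasite growth measured after 72 hours of compound exposure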
[9] = Dd2 malaria parasite growth inhibition potency – SYBR Green, dry powder samples, dose response (AID 1159566); format: functional, cell-based;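 also: potency for growth inhibition with lower SYBR green DNA signal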
[10] = toxicity to human HepG2 hepatoma cells – cell-based, plate reader, dry powder samples, cytotoxicity control, dose response (AID 1159569); format: functional;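 also: inhibitor potency with signal falling toward the positive control level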
[11] = P. falciparum Dd2 growth inhibitors, dose response, SYBR Green, cherry-picked samples (AID 1159567); format: functional, cell-based
[12] = growth inhibition of PfATP4-mutant resistant parasites – NITD609-resistant line, SYBR Green, dry powder, dose response (AID 1159571); format: functional, cell-based;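 also: parasites synchronized at ring stage by sorbitol before testing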

With `CC(C)c1ccc(NC(S)=NC2CC3C=CC2C3)cc1` (centres undefined) the IC50 [1] was 42.5 µM (not active).
For `Cc1cc(-c2nnc3n2N=C(c2ccc(-c4ccccc4)cc2)CS3)[nH]n1`, the EC50 [2] was 16.1 µM (active), the EC50 [3] was 15.9 µM (active) and the EC50 [4] was 15.2 µM (active). The IC50 [5] was > 100 µM (not active) and the EC50 [6] was 13.7 µM (active).
With `O=C(CN1C(=O)C2C3c4ccccc4C(c4ccccc43)C2C1=O)N1CCOCC1` (centres undefined) the IC50 [5] was > 100 µM (not active).
For `COC(=O)c1ccccc1NC(=O)N1CCN(c2ccc(F)cc2)CC1`, the IC50 [1] was 8.67 µM (not active).
With `O=C(O)C1CC=CCC1C(=O)Nc1ccc(F)c(F)c1` (centres undefined) the IC50 (Leucine aminopeptidase) was 20.4 µM (active) and the IC50 [5] was > 100 µM (not active).
For `O=C(Nc1ccccn1)c1cccc(S(=O)(=O)N2CCCCC2)c1`, the IC50 [5] was > 100 µM (not active).
In the case of `O=C(Nc1ccc(Cl)c(Cl)c1)OCCNC(=O)c1cccc(Cl)c1`, the IC50 [1] is reported as 2.99 µM (not active).
In the case of `CC1=NN(c2ccc(S(=O)(=O)O)cc2Cl)C(=O)C1`, the AC50 [7] is reported as 4.45 µM (active), the EC50 (Protein RecA) is reported as 9.45 µM (active) and the AC50 (Caspase-6) is reported as 19 µM (active).
In the case of `C[C@@H]1CN([C@H](C)CO)C(=O)c2cc(C#Cc3cccc(F)c3)cnc2O[C@@H]1CN(C)C(=O)C1CCCCC1`, the AC50 [8] is reported as 3.19 µM (active), the AC50 [9] is reported as 2.16 µM (active) and the AC50 [10] is reported as 30.1 µM (active). The AC50 [11] was 2.91 µM (active) and the AC50 [12] was 2.66 µM (active).
With `C[C@H]1CN([C@@H](C)CO)C(=O)c2ccccc2-c2ccccc2CO[C@@H]1CN(C)C(=O)Nc1ccc(-c2ccccc2)cc1` the AC50 [8] was 1.35 µM (active), the AC50 [9] was 0.723 µM (active) and the AC50 [10] was > 100 µM (inactive). The AC50 [11] was 1.77 µM (active) and the AC50 [12] was 1.56 µM (active).
For `COc1ccccc1CN1CC2(C1)[C@H](c1ccccc1)[C@H](CO)N2Cc1ccccc1`, the AC50 [8] was 4.14 µM (active), the AC50 [9] was 1.96 µM (active) and the AC50 [10] was 23.9 µM (active). The AC50 [12] was 2.85 µM (active).

Source: ChEMBL document CHEMBL1201862, “PubChem BioAssay data set” (2004)
